Source: patent US10065990B2, “Cyclic peptide compound, and preparation method, pharmaceutical composition and use thereof” (HANGZHOU GUANYU BIO-MEDICAL CO., LTD, priority 2013, dated 2018)
Where two headings read alike, the source gives them in different places.

What was measured:
[1] = tested on: KBM-5 (human chronic myelogenous leukemia); test: MTT cancer cell growth inhibition; assay type: cell-based; conditions: read-out: GI50 KBM-5
Excerpt: (§1) MTT assay principle is yellow MTT can penetrate membrane into the cell, succinic dehydrogenase of the mitochondria in living cells can make exogenous MTT reduction of insoluble in water of blue-violet acicular formazan for crystallization and deposition in the cell, crystallization can be dissolved dimethyl sulfoxide (DMSO) solution, detected its absorbance at 490 nm/570 nm wavelength by enzyme-linked immunosorbent assay, which can reflect the number of cells.
(§2) Using DMEM+10% FBS culture medium or using 1640+10% FBS culture, respectively.
(§3) a) Cells were seeded in 96-well plates with the inoculation of 1500/well, 190 μl/hole, 37° C., 5% of CO2 incubator overnight;
(§4) b) The next day each well was added 10 μl of different drugs. The final concentration of drug was 10^−5˜10^−10M, three parallel holes; 37° C., 5% CO2 culture incubator for 72 hours incubation;
(§5) c) Per well was added 20 μl 5 mg/ml of MTT, 37° C., 5% CO2 culture incubator for 4 hours incubation;
(§6) d) The supernatant was discarded. Each well was added 100 μl of DMSO and oscillation;
(§7) e) 570 nm readings. Calculate cell viability. GI50 calculation based on the results.

[2] = tested on: Hela (human cervical cancer cells); test: MTT cancer cell growth inhibition; assay type: cell-based; conditions: read-out: GI50 Hela
Excerpt: as §1, §2, §3, §4, §5, §6, §7

[3] = tested on: MOLT-4 (human acute lymphoblastic leukemia cells); test: MTT cancer cell growth inhibition; assay type: cell-based; conditions: Homo sapiens, MOLT-4, 72 h, read-out: GI50 Mol
Excerpt: as §1, §2, §3, §4, §5, §6, §7

[4] = tested on: HCC827 (human non-small cell lung cancer cells); test: MTT cancer cell growth inhibition; assay type: cell-based; conditions: Homo sapiens, HCC827, 72 h, read-out: GI50 HCC827
Excerpt: as §1, §2, §3, §4, §5, §6, §7

[5] = tested on: H1975 (non-small cell lung adenocarcinoma); test: MTT cancer cell growth inhibition; assay type: cell-based; conditions: Homo sapiens, NCI-H1975, 72 h, read-out: GI50 H1975
Excerpt: as §1, §2, §3, §4, §5, §6, §7

[6] = tested on: MDA-MB-231 (breast cancer cells); test: MTT cancer cell growth inhibition; assay type: cell-based
Excerpt: as §1, §2, §3, §4, §5, §6, §7

[7] = tested on: HT1080 (human fibrosarcoma cells); test: MTT cancer cell growth inhibition; assay type: cell-based; conditions: Homo sapiens, HT-1080, 72 h, read-out: GI50 HT1
Excerpt: as §1, §2, §3, §4, §5, §6, §7

[8] = tested on: SGC-7901 (human gastric cancer cells); test: MTT cancer cell growth inhibition; assay type: cell-based; conditions: read-out: GI50 SGC-7901
Excerpt: as §1, §2, §3, §4, §5, §6, §7

[9] = tested on: Huh-7 (human hepatoma cells); test: MTT cancer cell growth inhibition; assay type: cell-based; conditions: Homo sapiens, Huh-7, 72 h, read-out: GI50 Huh-7
Excerpt: as §1, §2, §3, §4, §5, §6, §7

[10] = tested on: PANC-1 (Pac-1, human pancreatic cancer cells); test: MTT cancer cell growth inhibition; assay type: cell-based; conditions: Homo sapiens, PANC-1, 72 h, read-out: GI50 PAN
Excerpt: as §1, §2, §3, §4, §5, §6, §7

[11] = tested on: N-87 (human gastric cancer cells); test: MTT cancer cell growth inhibition; assay type: cell-based; conditions: read-out: GI50 N-87
Excerpt: as §1, §2, §3, §4, §5, §6, §7

[12] = tested on: A549 (human lung cancer cells); test: MTT cancer cell growth inhibition; assay type: cell-based; conditions: Homo sapiens, A549, 72 h, read-out: GI50 A54
Excerpt: as §1, §2, §3, §4, §5, §6, §7

[13] = tested on: U937 (human leukemia cells); test: MTT cancer cell growth inhibition; assay type: cell-based; conditions: Homo sapiens, U-937, 72 h, read-out: GI50 U93
Excerpt: as §1, §2, §3, §4, §5, §6, §7

[14] = tested on: DU145 (human prostate cancer cells); test: MTT cancer cell growth inhibition; assay type: cell-based; conditions: Homo sapiens, DU-145, 72 h, read-out: GI50 Du1
Excerpt: as §1, §2, §3, §4, §5, §6, §7

[15] = tested on: K562 (human leukemia cells); test: MTT cancer cell growth inhibition; assay type: cell-based; conditions: read-out: GI50 K562
Excerpt: as §1, §2, §3, §4, §5, §6, §7

[16] = tested on: BGC-823 (human gastric cancer cells); test: MTT cancer cell growth inhibition; assay type: cell-based; conditions: read-out: GI50 BG
Excerpt: as §1, §2, §3, §4, §5, §6, §7

[17] = tested on: MCF-7 (human breast cancer cells); test: MTT cancer cell growth inhibition; assay type: cell-based; conditions: Homo sapiens, MCF7, 72 h, 72 hours incubation, read-out: GI50 MCF
Excerpt: as §1, §2, §3, §4, §5, §6, §7

[18] = tested on: Bel-7402 (human hepatoma cells); test: MTT cancer cell growth inhibition; assay type: cell-based; conditions: Homo sapiens, Bel-7402, 72 h, read-out: GI50 Bel-7402
Excerpt: as §1, §2, §3, §4, §5, §6, §7

[19] = tested on: KBM5-T315I (human chronic myelogenous leukemia); test: MTT cancer cell growth inhibition; assay type: cell-based; conditions: Homo sapiens, 72 h, read-out: GI50 KBM5-T315I
Excerpt: as §1, §2, §3, §4, §5, §6, §7

[20] = tested on: lncap (prostate cancer cells); test: MTT cancer cell growth inhibition; assay type: cell-based; conditions: read-out: GI50 lnca
Excerpt: as §1, §2, §3, §4, §5, §6, §7

[21] = molecular target: T1, HDAC7 (Homo sapiens, UniProt Q8WUI4); test: HDAC biochemical activity measurement (fluorescent substrate deacetylation);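 further: fluorogenic deacetylation assay using acetyl-lysine substrate at 20 µM, enzyme and compound incubated 30 min at 37 °C, then developer added, fluorescence read at 360/460 nm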; conditions: HDAC7; 37° C. 30 minutes
T1 sequence (Q8WUI4 1-952): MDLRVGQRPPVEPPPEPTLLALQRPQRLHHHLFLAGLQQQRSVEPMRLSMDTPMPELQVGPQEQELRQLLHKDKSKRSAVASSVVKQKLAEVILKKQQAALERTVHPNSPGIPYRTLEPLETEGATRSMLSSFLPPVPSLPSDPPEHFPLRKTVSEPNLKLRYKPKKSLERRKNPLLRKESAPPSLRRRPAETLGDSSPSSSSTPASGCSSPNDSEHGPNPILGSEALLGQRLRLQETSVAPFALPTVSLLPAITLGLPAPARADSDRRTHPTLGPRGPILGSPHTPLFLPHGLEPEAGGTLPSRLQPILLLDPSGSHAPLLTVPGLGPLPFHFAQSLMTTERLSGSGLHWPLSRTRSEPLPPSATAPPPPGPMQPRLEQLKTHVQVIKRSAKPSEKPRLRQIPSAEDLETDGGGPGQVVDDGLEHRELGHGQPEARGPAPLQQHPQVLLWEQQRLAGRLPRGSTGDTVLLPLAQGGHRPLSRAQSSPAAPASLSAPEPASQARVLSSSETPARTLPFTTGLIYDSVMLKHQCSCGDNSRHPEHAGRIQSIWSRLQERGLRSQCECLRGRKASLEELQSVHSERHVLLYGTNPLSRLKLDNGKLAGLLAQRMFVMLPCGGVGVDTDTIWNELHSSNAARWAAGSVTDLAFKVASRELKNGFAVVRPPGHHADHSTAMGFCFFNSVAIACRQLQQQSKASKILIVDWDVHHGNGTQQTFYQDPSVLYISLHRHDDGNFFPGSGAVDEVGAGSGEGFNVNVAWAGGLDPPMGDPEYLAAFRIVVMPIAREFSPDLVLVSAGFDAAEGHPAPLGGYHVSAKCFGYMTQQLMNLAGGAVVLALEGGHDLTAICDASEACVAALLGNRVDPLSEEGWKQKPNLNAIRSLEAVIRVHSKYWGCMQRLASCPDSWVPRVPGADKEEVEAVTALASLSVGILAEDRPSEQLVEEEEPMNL

[22] = Homo sapiens, KBM5, 72 h, MTT, 72 hours incubation, KBM-5 cells
[23] = MTT, 72 hours incubation, HCC827 cells
[24] = MTT, 72 hours incubation, H1975 cells
[25] = Homo sapiens, MDA-MB-231, 72 h, read-out: GI50 MDA-MB-231, MTT, 72 hours incubation, MDA-MB-231 cells
[26] = Homo sapiens, SGC-7901, 72 h, MTT, 72 hours incubation, SGC-7901 cells
[27] = MTT, 72 hours incubation, Huh-7 cells
[28] = Homo sapiens, 72 h, MTT, 72 hours incubation, N-87 cells
[29] = Homo sapiens, K562, 72 h, MTT, 72 hours incubation, K562 cells
[30] = MTT, 72 hours incubation, Bel-7402 cells
[31] = MTT, 72 hours incubation, KBM5-T315I cells
[32] = MOLT-4 cells, MTT, 72 hours incubation
[33] = HT1080 cells, MTT, 72 hours incubation
[34] = PANC-1 cells, MTT, 72 hours incubation
[35] = A549 cells, MTT, 72 hours incubation
[36] = U937 cells, MTT, 72 hours incubation
[37] = DU145 cells, MTT, 72 hours incubation

GI50 [1, 22]	GI50 [4, 23]	GI50 [5, 24]	GI50 [6, 25]	GI50 [8, 26]	GI50 [9, 27]	GI50 [11, 28]	GI50 [15, 29]	GI50 [18, 30]	GI50 [19, 31]	IC50 HDAC7 [21]	GI50 [3, 32]	GI50 [7, 33]	GI50 [10, 34]	GI50 [12, 35]	GI50 [13, 36]	GI50 [14, 37]	Structure (SMILES)	also measured
53 nM	41 nM	23 nM	36 nM	23 nM	99 nM	45 nM	41 nM	36 nM	28 nM	no activity	–	–	–	–	–	–	C/C=C1\NC(=O)c2nc(ccc2F)CNC(=O)C[C@@H](/C=C/CCS)OC(=O)[C@H](Cc2ccccc2)NC1=O [Compound 115]	GI50 ([2]; Homo sapiens, HeLa, 72 h, MTT, 72 hours incubation): 80 nM; GI50 ([3]; MTT, 72 hours incubation): 80 nM; GI50 ([7]; MTT, 72 hours incubation): 80 nM; GI50 ([10]; MTT, 72 hours incubation): 60 nM; GI50 ([12]; MTT, 72 hours incubation): 40 nM; GI50 ([13]; MTT, 72 hours incubation): 40 nM; GI50 ([14]; MTT, 72 hours incubation): 70 nM; GI50 ([16]; Homo sapiens, BGC-823, 72 h, MTT, 72 hours incubation): 60 nM; GI50 [17]: 70 nM; GI50 ([20]; Homo sapiens, LNCaP, 72 h, MTT, 72 hours incubation): 80 nM
27 nM	12 nM	75 nM	76 nM	82 nM	39 nM	97 nM	61 nM	48 nM	39 nM	no activity	20 nM	10 nM	20 nM	50 nM	60 nM	10 nM	C=C1NC(=O)c2ccc(SC)c(n2)CNC(=O)C[C@@H](/C=C/CCSC(C)=O)OC(=O)[C@H](C(C)C)NC1=O [Compound 206]	GI50 ([16]; Homo sapiens, BGC-823, 72 h, BGC-823 cells, MTT, 72 hours incubation): 20 nM; GI50 ([17]; MCF-7 cells): 30 nM; GI50 ([20]; Homo sapiens, LNCaP, 72 h, lncap cells, MTT, 72 hours incubation): 70 nM
–	–	–	–	–	–	–	–	–	–	no activity	–	–	–	–	–	–	O=C(CCCCCCC(=O)Nc1ccccc1)NO [SAHA, suberoylanilide hydroxamic acid, reference compound]	GI50 ([1]; Homo sapiens, KBM5, 72 h): 11200 nM; GI50 ([2]; Homo sapiens, HeLa, 72 h): 30200 nM; GI50 [3]: 10000 nM; GI50 [4]: 16700 nM; GI50 [5]: 15200 nM; GI50 ([6]; Homo sapiens, MDA-MB-231, 72 h, read-out: GI50 MDA-MB-231): 22500 nM; GI50 [7]: 3970 nM; GI50 ([8]; Homo sapiens, SGC-7901, 72 h): 12500 nM; GI50 [9]: 18300 nM; GI50 [10]: 7620 nM; GI50 ([11]; Homo sapiens, 72 h): 13200 nM; GI50 [12]: 8530 nM; GI50 [13]: 2350 nM; GI50 [14]: 15200 nM; GI50 ([15]; Homo sapiens, K562, 72 h): 10100 nM; GI50 ([16]; Homo sapiens, BGC-823, 72 h): 5230 nM; GI50 [18]: 12700 nM; GI50 [19]: 86700 nM; GI50 ([20]; Homo sapiens, LNCaP, 72 h): 4610 nM
–	62 nM	58 nM	–	–	38 nM	–	–	56 nM	43 nM	no activity	30 nM	80 nM	60 nM	110 nM	30 nM	60 nM	C/C=C1\NC(=O)c2cc(SC)cc(n2)CNC(=O)C[C@@H](/C=C/CCSC(C)=O)OC(=O)[C@H](C)NC1=O [Compound 184]	GI50 ([1]; MTT, 72 hours incubation, KBM-5 cells): 78 nM; GI50 ([2]; Hela cells, MTT, 72 hours incubation): 20 nM; GI50 ([6]; read-out: GI50 MDA-MB-231, MTT, 72 hours incubation, MDA-MB-231 cells): 74 nM; GI50 ([8]; MTT, 72 hours incubation, SGC-7901 cells): 11 nM; GI50 ([11]; MTT, 72 hours incubation, N-87 cells): 42 nM; GI50 ([15]; MTT, 72 hours incubation, K562 cells): 23 nM; GI50 ([16]; BGC-823 cells, MTT, 72 hours incubation): 50 nM; GI50 ([20]; lncap cells, MTT, 72 hours incubation): 20 nM
